# Measured values taken from US9540343B2 (Gilead Sciences, Inc., priority 2011, dated 2017).
# Assays:
# in vitro = details: human, uninfected MT-4 cells, CC50 (nM), same protocol as Test A, CellTiter-Glo
# Method in brief: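 Cytoprotection read-out: CellTiter-Glo chemiluminescence after 5 days at 37 °C of HIV-IIIb-infected MT-4 cells (m.o.i. 0.003) with compound in 10-point 3-fold dilutions, quadruplicate, 10% FBS. Cytotoxicity (CC50) measured identically without virus.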
# HIV-IIIb = assay: Test A: Antiviral assay in MT4 cells; assay type: cell-based, HIV-1; details: Human immunodeficiency virus 1, IIIB, MT4, 120 h, read-out: % inhibition at 2 μM, percent inhibition of virus-induced cell killing, from dose response curve at 2 uM drug; MT-4 cells infected with HIV-IIIb, 5 days, CellTiter-Glo
Compound,CC50 at 5 days (in vitro) [nM],inhibition at 2 µM (HIV-IIIb) [%]
"NC(=O)c1cc(-c2cccnc2[C@H](Cc2cc(F)cc(F)c2)NC(=O)Cn2nc(C(F)(F)F)c3c2CCCC32CC2)ccc1F [Example 277B, (S)-5-(2-(2-(3,5-difluorophenyl)-1-(2-(3′-(trifluoromethyl)-6′,7′-dihydrospiro[cyclopropane-1,4′-indazole]-1′(5′H)-yl)acetamido)ethyl)pyridin-3-yl)-2-fluorobenzamide]",19300,96
"Cc1cc2ncn(CC(=O)N[C@@H](Cc3cc(F)cc(F)c3)c3ncccc3-c3cccc(C(N)=O)c3)c2cc1C [Example 278, (S)-3-(2-(2-(3,5-difluorophenyl)-1-(2-(5,6-dimethyl-1H-benzo[d]imidazol-1-yl)acetamido)ethyl)pyridin-3-yl)benzamide]",8530,121
"Cc1cc2ncn(CC(=O)N[C@H](Cc3cc(F)cc(F)c3)c3ncncc3-c3ccc(Cl)cc3)c2cc1C [Example 279G, (R)—N-(1-(5-(4-chlorophenyl)pyrimidin-4-yl)-2-(3,5-difluorophenyl)ethyl)-2-(5,6-dimethyl-1H-benzo[d]imidazol-1-yl)acetamide]",9300,82
"CCc1c(C#CC(C)(C)C)c(C(F)(F)F)nn1CC(=O)N[C@@H](Cc1cc(F)cc(F)c1)c1ncccc1-c1ccc(F)c(C(N)=O)c1 [Example 280, (S)-5-(2-(2-(3,5-difluorophenyl)-1-(2-(4-(3,3-dimethylbut-1-ynyl)-5-ethyl-3-(trifluoromethyl)-1H-pyrazol-1-yl)acetamido)ethyl)pyridin-3-yl)-2-fluorobenzamide]",4180,0
"NC(=O)c1cc(-c2cccnc2[C@H](Cc2cc(F)cc(F)c2)NC(=O)Cn2nc(C(F)(F)F)c3c2C(=O)CC3)ccc1F [Example 281C, (S)-5-(2-(2-(3,5-difluorophenyl)-1-(2-(6-oxo-3-(trifluoromethyl)-5,6-dihydrocyclopenta[c]pyrazol-1(4H)-yl)acetamido)ethyl)pyridin-3-yl)-2-fluorobenzamide]",28300,5
"NC(=O)c1cc(-c2cccnc2[C@H](Cc2cc(F)cc(F)c2)NC(=O)COc2cc[nH]c(=O)c2)ccc1F [Example 282, (S)-5-(2-(2-(3,5-difluorophenyl)-1-(2-(2-oxo-1,2-dihydropyridin-4-yloxy)acetamido)ethyl)pyridin-3-yl)-2-fluorobenzamide]",> 53200,0
"NC(=O)c1cc(-c2cccnc2[C@H](Cc2cc(F)cc(F)c2)NC(=O)Cn2nc(C(F)(F)F)c3c2C(F)(F)CC3)ccc1F [Example 283C, (S)-5-(2-(1-(2-(6,6-difluoro-3-(trifluoromethyl)-5,6-dihydrocyclopenta[c]pyrazol-1(4H)-yl)acetamido)-2-(3,5-difluorophenyl)ethyl)pyridin-3-yl)-2-fluorobenzamide]",24400,65
"NC(=O)c1cc(-c2cccnc2[C@H](Cc2cc(F)cc(F)c2)NC(=O)Cn2nc(C(F)F)c3c2C(F)(F)CCC3=O)ccc1F [Example 285G, (S)-5-(2-(1-(2-(3-(difluoromethyl)-7,7-difluoro-4-oxo-4,5,6,7-tetrahydro-1H-indazol-1-yl)acetamido)-2-(3,5-difluorophenyl)ethyl)pyridin-3-yl)-2-fluorobenzamide]",48500,58
"O=C(Cn1cnc2c1CCCC2)N[C@@H](Cc1cc(F)cc(F)c1)c1ncccc1Br [Example 286, (S)—N-(1-(3-bromopyridin-2-yl)-2-(3,5-difluorophenyl)ethyl)-2-(4,5,6,7-tetrahydro-1H-benzo[d]imidazol-1-yl)acetamide]",25200,0
"CNc1ccc(-c2cccnc2[C@H](Cc2cc(F)cc(F)c2)NC(=O)Cn2nc(C(F)F)c3c2C(F)(F)CCC3(F)F)cn1 [Example 287E, (S)-2-(3-(difluoromethyl)-4,4,7,7-tetrafluoro-4,5,6,7-tetrahydro-1H-indazol-1-yl)-N-(2-(3,5-difluorophenyl)-1-(6′-(methylamino)-3,3′-bipyridin-2-yl)ethyl)acetamide]",16000,98
"O=C(Cn1nc(C(F)F)c2c1C(F)(F)CCC2(F)F)N[C@@H](Cc1cc(F)cc(F)c1)c1ncncc1-c1cnc2[nH]ccc2c1 [Example 288, (S)—N-(1-(5-(1H-pyrrolo[2,3-b]pyridin-5-yl)pyrimidin-4-yl)-2-(3,5-difluorophenyl)ethyl)-2-(3-(difluoromethyl)-4,4,7,7-tetrafluoro-4,5,6,7-tetrahydro-1H-indazol-1-yl)acetamide]",16400,108
"CCOC(=O)c1cn(CC(=O)N[C@@H](Cc2cc(F)cc(F)c2)c2ncccc2-c2ccc(F)c(C(N)=O)c2)nc1C(F)(F)F [Example 289, (S)-ethyl 1-(2-(1-(3-(3-carbamoyl-4-fluorophenyl)pyridin-2-yl)-2-(3,5-difluorophenyl)ethylamino)-2-oxoethyl)-3-(trifluoromethyl)-1H-pyrazole-4-carboxylate]",26400,2
"CCc1c(-c2ccccc2)c(C(F)(F)F)nn1CC(=O)N[C@@H](Cc1cc(F)cc(F)c1)c1ncccc1-c1ccc(F)c(C(N)=O)c1 [Example 290, (S)-5-(2-(2-(3,5-difluorophenyl)-1-(2-(5-ethyl-4-phenyl-3-(trifluoromethyl)-1H-pyrazol-1-yl)acetamido)ethyl)pyridin-3-yl)-2-fluorobenzamide]",11500,4
"Cc1c(C2CC2)c(C(F)(F)F)nn1CC(=O)N[C@@H](Cc1cc(F)cc(F)c1)c1ncccc1-c1ccc(F)c(C(N)=O)c1 [Example 291, (S)-5-(2-(1-(2-(4-cyclopropyl-5-methyl-3-(trifluoromethyl)-1H-pyrazol-1-yl)acetamido)-2-(3,5-difluorophenyl)ethyl)pyridin-3-yl)-2-fluorobenzamide]",16500,86
"NC(=O)c1cc(-c2cccnc2[C@H](Cc2cc(F)cc(F)c2)NC(=O)Cn2cc(CO)c(C(F)(F)F)n2)ccc1F [Example 292, (S)-5-(2-(2-(3,5-difluorophenyl)-1-(2-(4-(hydroxymethyl)-3-(trifluoromethyl)-1H-pyrazol-1-yl)acetamido)ethyl)pyridin-3-yl)-2-fluorobenzamide]",> 53200,1
"O=C(Cc1c[nH]c2ccc(F)cc12)N[C@H](Cc1cc(F)cc(F)c1)c1ncncc1-c1ccc(Cl)cc1 [Example 293, (R)—N-(1-(5-(4-chlorophenyl)pyrimidin-4-yl)-2-(3,5-difluorophenyl)ethyl)-2-(5-fluoro-1H-indol-3-yl)acetamide]",11200,44
"NC(=O)c1cc(-c2cccnc2[C@H](Cc2cc(F)cc(F)c2)NC(=O)Cc2c[nH]c3ccc(F)cc23)ccn1 [Example 294, (S)-2-(2-(3,5-difluorophenyl)-1-(2-(5-fluoro-1H-indol-3-yl)acetamido)ethyl)-3,4′-bipyridine-2′-carboxamide]",20500,114
"NS(=O)(=O)c1cccc(-c2cncnc2[C@H](Cc2cc(F)cc(F)c2)NC(=O)Cc2c[nH]c3ccc(O)cc23)c1 [Example 295B, (S)—N-(2-(3,5-difluorophenyl)-1-(5-(3-sulfamoylphenyl)pyrimidin-4-yl)ethyl)-2-(5-hydroxy-1H-indol-3-yl)acetamide]",> 53200,99
"NC(=O)c1cc(-c2cccnc2[C@H](Cc2cc(F)cc(F)c2)NC(=O)Cn2cc(C=O)c(C(F)(F)F)n2)ccc1F [Example 296, (S)-5-(2-(2-(3,5-difluorophenyl)-1-(2-(4-formyl-3-(trifluoromethyl)-1H-pyrazol-1-yl)acetamido)ethyl)pyridin-3-yl)-2-fluorobenzamide]",10800,96
"C=Cc1cn(CC(=O)N[C@@H](Cc2cc(F)cc(F)c2)c2ncccc2-c2ccc(F)c(C(N)=O)c2)nc1C(F)(F)F [Example 297, (S)-5-(2-(2-(3,5-difluorophenyl)-1-(2-(3-(trifluoromethyl)-4-vinyl-1H-pyrazol-1-yl)acetamido)ethyl)pyridin-3-yl)-2-fluorobenzamide]",23300,14
"NC(=O)c1cccc(-c2cccnc2[C@H](Cc2cc(F)cc(F)c2)NC(=O)Cn2ccc3ccc(=O)[nH]c32)c1 [Example 298C, (S)-3-(2-(2-(3,5-difluorophenyl)-1-(2-(6-oxo-6,7-dihydro-1H-pyrrolo[2,3-b]pyridin-1-yl)acetamido)ethyl)pyridin-3-yl)benzamide]",> 53000,61
"O=C(Cn1nc(C(F)F)c2c1C1CC1CC2)NC(Cc1cc(F)cc(F)c1)c1ncncc1-c1cnc2[nH]ccc2c1 (stereo not shown) [Example 299D, N-(1-(5-(1H-pyrrolo[2,3-b]pyridin-5-yl)pyrimidin-4-yl)-2-(3,5-difluorophenyl)ethyl)-2-(3-(difluoromethyl)-5,5a,6,6a-tetrahydrocyclopropa[g]indazol-1(4H)-yl)acetamide]",19500,100
"CN(C)Cc1cn(CC(=O)N[C@@H](Cc2cc(F)cc(F)c2)c2ncccc2-c2ccc(F)c(C(N)=O)c2)nc1C(F)(F)F [Example 300, (S)-5-(2-(2-(3,5-difluorophenyl)-1-(2-(4-((dimethylamino)methyl)-3-(trifluoromethyl)-1H-pyrazol-1-yl)acetamido)ethyl)pyridin-3-yl)-2-fluorobenzamide]",> 53200,0
